Reference: patent publication US10617664B2, “Brain derived PPARα ligands” (Rush University Medical Center, priority 2015, dated 2020)

How the values were obtained:
[1] = tested on: NR2A, GluR1 and CREB; experiment: Immunoblot and immunofluorescence of synaptic molecules in Ppara-null hippocampal neurons; assay type: cell-based, mouse; settings: 5 μM HEX, 5 μM OCT, 50 μM HMB
Procedure: (§1) (FIG. 17A) Immunoblot analyses followed by densitometric analyses of NR2A (FIG. 17B), GluR1 (FIG. 17C) and CREB (FIG. 17D) were performed in Ppara-null and WT hippocampal neurons treated with 5 μM HEX, 5 μM OCT and 50 μM HMB. Data are mean±SD of three different experiments. ^ap<0.05 versus WT-control. Immunocytochemical analyses of NR2A (FIG. 17E) and GluR1 (FIG. 17F) in WT and Ppara-null hippocampal neurons treated with HEX, OCT and HMB. Hippocampal neurons were transduced with lenti-GFP for 48 h followed by treatment with different ligands. Immunoblot analyses followed by relative densitometric analyses of CREB in Ppara-null hippocampal neurons transduced with lentivirions containing different Ppara constructs followed by treatment with HEX (FIG. 17G-H), OCT (FIG. 17I-J) and HMB (FIG. 17K-L). Bands were scanned and presented as relative to control (FIG. 17H, HEX; FIG. 17J, OCT; FIG. 17L, HMB). Data are mean±SD of three different experiments. ^ap<0.05 vs FLPpara control.
Isolation of Mouse Hippocampal Neurons: Hippocampal neurons were isolated from fetuses (E18) of pregnant female Ppara-null and strain-matched WT littermate mice as described by us^6,13,35-36 with some modifications. Briefly, dissection and isolation procedures were performed in an ice-cold, sucrose buffer solution (sucrose 0.32 M, Tris 0.025 M; pH 7.4)^37. The skin and the skull were carefully removed from the brain by scissors followed by peeling off the meninges by a pair of fine tweezers. Next, a fine incision was made in the middle line around the circle of Willis and medial temporal lobe was opened up. Hippocampus was isolated as a thin slice of tissue located near the cortical edge of medial temporal lobe. Hippocampal tissues isolated from all fetal pups (n>10) were combined together and homogenized with 1 ml of trypsin for 5 minutes at 37° C. followed by neutralization of trypsin. The single cell suspension of hippocampal tissue was plated in the poly-D-lysine pre-coated 75 mm flask. Five min after plating, the supernatants were carefully removed and replaced with complete neurobasal media. The next day, 10 μM AraC was added to remove glial contamination in the neuronal culture. The pure cultures of hippocampal neurons were allowed to differentiate fully for 9-10 days before treatment^35,36,38.
(§2) For whole-cell and tissue lysates, samples were homogenized in RIPA buffer containing protease and phosphatase inhibitors (Sigma), passed 10 times through a 26-gauge needle, rotated end over end for 30 min at 4° C., and centrifuged for 10 min at 18,000×g. The supernatant was aliquoted and stored at −80° C. until use. Protein concentrations were determined using a NanoDrop 2000 (Thermo Fisher), and 15-30 μg sample was heat-denatured and resolved on 10% or 12% polyacrylamide-SDS gels, transferred to 0.45 μm nitrocellulose membranes under semidry conditions (15V for 12 min). Membranes were blocked for 1 h with blocking buffer (Li-Cor), incubated with primary antibodies overnight at 4° C. under shaking conditions, washed, incubated with IR-dye-labeled secondary antibodies (1:17,000; Li-Cor) for 45 min at room temperature, washed, and visualized with the Odyssey Infrared Imaging System (Li-Cor). Blots were converted to grayscale and then binary, analyzed using Fiji, and normalized to appropriate loading controls.

[2] = tested on: PPRE-driven luciferase activity; experiment: PPRE-luciferase assay in Pparb-null astrocytes with PPARγ antagonist GW9662; assay type: cell-based, mouse; settings: for PPRE luciferase activity: Pparb-null astrocytes; for effect of GW9662 on ligand-mediated increase in PPRE-luciferase activity: Pparb-null astrocytes pre-treated with GW9662
Procedure: FIG. 16A) Pparb-null primary astrocytes plated at 60-70% confluence in 12-well plates were transfected with 0.25 μg of tkPPREx3-Luc (a PPRE-dependent luciferase reporter construct). Twenty-four hours after transfection, cells were treated with different concentrations of GW9662 for 30 min followed by stimulation with rosiglitazone. After 4 h, luciferase activities were assayed. […] After transfection, cells were also treated with GW9662 followed by stimulation with OCT (FIG. 16B), HEX (FIG. 16C) and HMB (FIG. 16D).
These astrocytes were pre-treated with PPARγ-antagonist GW9662 to nullify the involvement of PPARγ in reporter assay.

[3] = biological target: T1, PPARα LBD (Homo sapiens, UniProt Q07869); experiment: TR-FRET PPAR-alpha coactivator assay (Lanthascreen); assay type: biochemical; settings: curve fit FIG. 13
T1 construct: GST-tagged recombinant PPARα LBD protein; purchased PV4684
T1 sequence (Q07869 239-466 limits assumed): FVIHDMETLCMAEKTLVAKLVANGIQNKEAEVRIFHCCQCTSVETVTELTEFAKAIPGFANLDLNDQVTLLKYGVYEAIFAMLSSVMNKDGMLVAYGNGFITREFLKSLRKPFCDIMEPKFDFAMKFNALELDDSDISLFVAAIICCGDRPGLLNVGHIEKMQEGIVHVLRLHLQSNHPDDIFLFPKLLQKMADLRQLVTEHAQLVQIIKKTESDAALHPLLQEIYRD
Procedure: TR-FRET assay was performed using Lanthascreen TR-FRET PPAR-alpha coactivator assay kit (Cat # PV4684). In this assay, different doses of statin drugs were incubated with GST-tagged recombinant PPARα LBD protein, Terbium (Tb)-tagged anti GST antibody and Fluorescein (FL)-tagged PGC1α as directed in the manufacturer's protocol. The entire reaction was set up in corning 384 well plates by an automated robotic injector. Each plate was centrifuged, incubated in a dark place for 30 mins, and then analyzed “molecular devices analyst” machine equipped with dichroic mirror. The excitation wavelength and emission wavelength were set at 340 nm and 540 nm wavelength respectively.

[4] = tested on: CREB; experiment: Immunoblot of CREB in Ppara-null hippocampal neurons transduced with Ppara constructs; assay type: cell-based, mouse
Procedure: as §1, §2

Row | SMILES | expression of CREB [1] | expression of NR2A [1] | PPRE luciferase activity [2] | effect of GW9662 on ligand-mediated increase in PPRE-luciferase activity [2] | EC50 [3] [µM] | expression of CREB ([4]; FL-Ppara) | expression of CREB ([4]; lenti-Y314D-Ppara) | expression of CREB ([4]; lenti-Y464D-Ppara) | expression of CREB ([4]; lenti-Y464D/Y314D-Ppara)
1 | CCOC(=O)C(C)(C)C(C)O (stereo not drawn) [HMB] | not | not | markedly increased | remained unable to inhibit | 31.6 | stimulated | only partially restored | remained unable to increase | remained unable to increase
2 | CCCCCCCCCCCCCCCC(N)=O [HEX, hexadecanamide] | not | not | markedly increased | remained unable to inhibit | 4.36 | stimulated | only partially restored | remained unable to increase | remained unable to increase
3 | CCCCCCCCC=CCCCCCCCC(N)=O [OCT, 9-octadecenamide] | not | not | markedly increased | remained unable to inhibit | 4.31 | stimulated | only partially restored | remained unable to increase | remained unable to increase
